{"source": "patent US11382929B2", "about": "“Compositions and methods to treat disease” (REGENTS OF THE UNIVERSITY OF MINNESOTA, priority 2019, dated 2022)", "key": {"AsPC-1 cells": {"test_system": "AsPC-1 cells", "test": "PAHM+Dox cytotoxicity assay (MTT)", "format": "cell-based, human", "details": "AsPC-1, PAHM and Dox used in combination", "protocol": "AsPC-1 or EMT6 cells were plated at 5000 cells/well (in 100 μL phenol red free medium) in 96-well plates. After culturing overnight (˜20 h), the medium was removed, and 100 μL medium containing various concentrations of PAHM and/or Dox was added to the cells. AsPC-1 cells were exposed to 1-100 μg/mL PAHM, 1-100 μg/mL Dox, or combinations of PAHM and Dox at a 1:1 ratio. EMT6 cells were exposed to 1-100 μg/mL PAHM, 0.02-2 μg/mL Dox, or combinations of PAHM and Dox at a 50:1 ratio. After 24 h exposure, the PAHM and Dox solutions were removed and 100 μL phenol red free medium was added to the cells. Cell viability was measured using an MTT assay. To each well, 10 μL MTT solution (12 mM in PBS) was added. After 4 h, 85 μL was removed from each well and formazan was solubilized in 100 μL dimethyl sulfoxide (DMSO). Absorbance was measured at 540 nm using a plate reader (BioTek™ Cytation™ 3 Cell Imaging Multi-Mode Reader controlled by Gen5™ All-In-One Microplate Reader Software). Data was analyzed in Microsoft Excel and Combination Indices and Dose Reduction Indices were calculated using CompuSyn (ComboSyn, Inc.)"}, "T98G": {"test_system": "T98G", "test": "MTT cytotoxicity in 2D monolayer cell culture", "format": "cell-based", "details": "Homo sapiens, 24 h treatment", "protocol": "(§1) Cytotoxicity in 2D Monolayer Cell Culture A mouse breast cancer cell line EMT-6 (ATCC, Manassas, Va.), two human breast cancer cell lines MDA-MB-231(ATCC) and MCF-7(ATCC), and one human glioma cancer cell line T98G(ATCC) were used in standard MTT assays (T. Mosmann, J Immunol Methods 65(1-2) (1983) 55-63) to test the cytotoxicity of PAHM polymers with different molecular weight and concentration after 24 and 48 h of treatment. D ox-HCl was also tested for comparison. All of the four cancer cell lines were incubated in corresponding cell culture media, EMT-6 media (DMEM high glucose, 10% FBS, 100 U/mL penicillin/streptomycin), T98G and MDA-MB-231 media (DMEM low glucose, 10% FBS, 100 U/mL penicillin/streptomycin), MCF-7 media (DMEM low glucose, 10% FBS, insulin, 100 U/mL penicillin/streptomycin), at 37° C., and a humidified atmosphere containing 5% CO2.\n(§2) The MTT assay of PAHM polymers and Dox-HCl on EMT-6 cells exemplified the general experimental procedures. EMT-6 cells were seeded into 96-well plates at 5000 cells/well and cultured for 20 h in EMT-6 media at 5% CO2 and 37° C. Afterwards polymers of various molecular weight and concentrations were added to the cells and cultured for 24 h or 48 h. MTT in PBS (5 mg/mL, 20 μL) was then added to each well, reaching a final concentration of 0.5 mg/mL. After 4 h, unreacted MTT was removed by aspiration. The formazan crystals were dissolved in 150 μL of DMSO, and the absorbance was measured at 570 nm using a Bio-Tek Synergy HT plate reader. Cell viability was calculated by [absorbance of cells exposed to polymers]/[absorbance of cells cultured without polymers] in percentage. Cell images were captured before MTT was added using an Olympus IX70 […] microscope under polarized light."}, "EMT-6": {"test_system": "EMT-6", "test": "MTT cytotoxicity in 2D monolayer cell culture", "format": "cell-based", "details": "Mus musculus, EMT6", "protocol": "as §1, §2"}, "EMT-6 tumors": {"test_system": "EMT-6 tumors", "test": "In vivo EMT-6 tumor model, anti-tumor effect", "design": "species or system Balb/C mice", "details": "8 mice per group, charge ratios 1, 4, 16 (low, med, high heparin dose) or equivalent heparin alone"}, "[1]": {"test": "Particle size of complexes by dynamic light scattering", "format": "physicochemical", "details": "complex of the anionic polymer with PAHM", "protocol": "Heparin (sodium salt) was mixed with PAHM in 20 mM HEPES buffer (pH 7.4) and incubated for 30 minutes at room temperature. The charge ratio of heparin and PAHM was adjusted based on the assumption that one repeating unit of PAHM (Mw 325.88) bears 1 mole of positive charge (approximately the same number of primary amino groups) and that one repeating unit of heparin (Mw 1471) carries 8 moles of negative charges (approximately the number of carboxylate and sulfate groups combined). The final PAHM concentration was kept constant as 0.1 mg/mL. To determine the average particle size of the nano-complexes, the heparin/PAHM mixtures were diluted 20 times to a final volume of 2 mL in HEPES buffer. The average hydrodynamic diameter (or particle size) in HEPES buffer (20 mM) at 25° C. were determined using a ZetaPlus Particle Analyzer (Brookhaven Instruments Corporation, Holtsville, N.Y.; 27 mW laser; 658 nm incident beam, 90° scattering angle). Nano-complexes with heparin/PAHM charge ratios ranging from 1 to 32 were prepared as described above and measured by DLS."}, "erythrocytes (RBC)": {"test_system": "erythrocytes (RBC)", "test": "Hemolysis", "format": "cell-based, mouse", "details": "complex of the anionic polymer with PAHM, data not shown"}}, "note": "Entries after “also recorded” stand apart in the source; their conditions may differ.", "data": [{"molecule": "COc1cccc2c1C(=O)c1c(O)c3c(c(O)c1C2=O)C[C@@](O)(C(=O)CO)C[C@@H]3O[C@H]1C[C@H](N)[C@H](O)[C@H](C)O1", "note": "[Dox, doxorubicin]", "values": [{"measurement": "Dose Reduction Index (DRI)", "setting": "AsPC-1 cells", "result": "much higher; also recorded: All but one DRI values are above 1"}, {"measurement": "IC50", "setting": "T98G", "result": "> 40", "unit": "µg/mL"}, {"measurement": "IC50", "setting": "EMT-6; EMT-6, 24 h treatment", "result": "10 to 15", "unit": "µg/mL"}, {"measurement": "IC50", "setting": "EMT-6; EMT-6, 48 h", "result": 5, "unit": "µg/mL"}]}, {"molecule": "heparin", "values": [{"measurement": "tumor growth (tumor volume and weight)", "setting": "EMT-6 tumors", "result": "modest but insignificant effect on tumor growth"}]}, {"molecule": "hyaluronic acid [HA]", "values": [{"measurement": "particles formed with PAHM (size)", "setting": "[1]", "result": "nano to micro scale"}, {"measurement": "hemolytic activity of PAHM in complexed form", "setting": "erythrocytes (RBC)", "result": "reduced, sometimes abolished"}]}]}
